Test results from PMC10321640, “The VIPR2-selective antagonist KS-133 changes macrophage polarization and exerts potent anti-tumor effects as a single agent and in combination with an anti-PD-1 antibody” (PLOS ONE, 2023).
Where a SMILES comes first, the peptide text is derived from it. Bridges are numbered along the chain shown (N, C = ends).

System: CT26 tumors
Assay: In vivo anti-tumor evaluation, CT26 subcutaneous allografts
Parameters: species or system BALB/cCrSlc female mice
Conditions: Fig 2A, KS-133 30 μg/mouse s.c. daily
Protocol: All experimental procedures that involved animals and their care were conducted in compliance with the Guide for the Care and Use of Laboratory Animals and ARRIVE guidelines. These animal experiments were approved by the Animal Care and Use Committee of Kagawa University (approval No. 21650) and conducted at Kagawa University in accordance with the guidelines. To establish subcutaneous allograft tumors, CT26 cells (1 × 10^5) were subcutaneously injected into the left groin region of BALB/cCrSlc female mice (6 weeks old; Japan SLC, Inc., Shizuoka, Japan) under isoflurane anesthesia. […] The tumor growth rate was recorded on days 1, 7, 14, and 21 by measuring the major and minor axes with a digital caliper. […]
Fig 2 Anti-tumor effects of KS-133 and KS-133 NPs with or without anti-PD-1 antibody in mice bearing CT26 subcutaneous allografts. […] (A) Anti-tumor efficacy of KS-133 (n = 9–10 mice per group, expressed as the mean ± SEM, *p < 0.01 and **p < 0.001 vs. vehicle control by two-way ANOVA). […] (B) Anti-tumor efficacy of KS-133 NPs (n = 11 mice per group, expressed as the mean ± SEM, *p < 0.05 and **p < 0.001 vs. vehicle control by two-way ANOVA). […] (C) Anti-tumor efficacy of KS-133 NPs and KS-133(P3S) NPs with an anti-PD-1 antibody (n = 6–8 mice per group, expressed as the mean ± SEM, *p < 0.01 and **p < 0.001 vs. Vehicle control by two-way ANOVA). […]

CC[C@H](C)[C@H](NC(=O)[C@H](CC(C)C)NC(=O)[C@@H]1CC(=O)NCCCC[C@@H]2NC(=O)[C@@H]3CCCN3C(=O)[C@H](CC(C)C)NC(=O)[C@H](Cc3ccc(O)cc3)NC(=O)[C@@H]3CCCN3C(=O)[C@@H]3CCCN3C(=O)[C@@H](NC(C)=O)CSSC[C@H](NC(=O)[C@H](CC(C)C)NC(=O)[C@H](Cc3ccc(O)cc3)NC2=O)C(=O)N1)C(N)=O [KS-133] (Ac-CPPYLPKYLCDLI-NH2; disulfide 1-10; lactam 7-11)
effect on CT26 tumor growth (in words) (alone or with anti-PD-1 antibody 200 μg/mouse i.p. three times in a week, combination p < 0.001 vs vehicle): tended to suppress CT26 tumor growth
tumor volume, control group set as 100% (anti-PD-1 antibody 200 μg/mouse i.p. three times in a week, 3 weeks, n = 9–10 mice per group): 66%
